{"source": "patent US6336949B1", "about": "“Slow release urea fertilizer composition and a process for the preparation of the said composition” (Council of Scientific & Industrial Research, priority 1999, dated 2002)", "key": {"Nitrosomonus": {"system": "Nitrosomonus", "assay": "Nitrosomonus population in soil", "assay_type": "cell-based", "details": "no coating material; urea 100 mg N kg^−1 soil", "method": "(§1) Representative soil samples were analyzed for different forms of N i.e., urea N, NH4 and NO3-N at regular intervals for two weeks to assess the nitrification inhibitory properties of the materials in question following the standard procedures (Douglas and Bremner, 1970, Soil Sci. Soc. Am. Proc. 34:859-862). Another set of experiment was conducted to assay the total bacterial population, total actinomycetes population and nitrifying bacteria viz., Nitrosomons and Nitrobacber (Alexander and Clark, 1965, In. Method of Soil Analysis Part II (CA Black Eds) Am. Soc .Agron. Inc. Wisconsin, U.S.A.; KenKnight and Torariko. 1973, Agrokhimiya 7:3)"}, "urease": {"system": "urease", "details": "no coating material; urea 100 mg N kg^−1 soil; 24 hours of incubation"}, "Nitrobacter": {"system": "Nitrobacter", "assay": "Nitrobacter population in soil", "assay_type": "cell-based", "details": "no coating material; urea 100 mg N kg^−1 soil", "method": "as §1"}, "Total bacteria": {"system": "Total bacteria", "assay": "Total bacterial population in soil", "assay_type": "cell-based", "details": "no coating material; urea 100 mg N kg^−1 soil", "method": "as §1"}, "Actinomycetes": {"system": "Actinomycetes", "assay": "Total actinomycetes population in soil", "assay_type": "cell-based", "details": "no coating material; urea 100 mg N kg^−1 soil", "method": "as §1"}, "[1]": {"system": "menthol mint (Mentha arvensis)", "assay": "Greenhouse pot culture experiment: herb yield, N accumulation, apparent N recovery", "assay_type": "in vivo", "details": "urea N 100 mg kg^−1, coating materials added at 1.00% w/w (Nil for urea alone)", "method": "To confirm the results of the incubation a pot culture experiment was conducted subsequently taking menthol mint (Mentha arvensis) as the test crops. Eight kg soil (<2 mm) were put in plastic container. The same fertilizers coating treatments as were in incubation experiment were imposed in this experiment, except that instead of two levels of coating materials, these were applied at 1.00% on v/w basis. The experiment was laid in a completely randomized design with four replications. The soils were analyzed for mineral forms of N at regular intervals. In addition, the plant samples were analyzed for N accumulation and apparent N recovery. [formula]"}}}
{"smiles": "NC(N)=O", "note": "[Urea alone, Urea]", "values": [{"measurement": "Nitrosomonus", "setting": "Nitrosomonus", "value": "3.30 × 103, g^−1 soil"}, {"measurement": "Urease activity", "setting": "urease", "value": "66.5 μg NH4—N liberated/g soil/hour"}, {"measurement": "Nitrobacter", "setting": "Nitrobacter", "value": "14.00 × 103, g^−1 soil"}, {"measurement": "Total bacteria", "setting": "Total bacteria", "value": "4.00 × 105, g^−1 soil"}, {"measurement": "Actinomycetes", "setting": "Actinomycetes", "value": "5.66 × 104, g^−1 soil"}, {"measurement": "Apparent recovery (apparent N recovery)", "setting": "[1]", "value": 29.1, "unit": "%"}, {"measurement": "Herb yield", "setting": "[1]", "value": 42.8, "unit": "g pot^−1"}, {"measurement": "N accumulation", "setting": "[1]", "value": 450, "unit": "mg pot^−1"}, {"measurement": "Apparent recovery (apparent N recovery)", "setting": "[1]; listed as urea alone", "value": 29, "unit": "%"}]}
